Measured values published in the NIST ThermoML archive (doi:10.1021/je700287u).
Numbers after ± are expanded uncertainties.

Experiment: xn = mol fraction of the nth substance listed
Conditions: Liquid

CN(CCO)CCO [N-methyldiethanolamine] + O
Conditions	mass density [kg/m3]
323.09 K, 3015 kPa, x1 = 0.1302	1027.4 ± 0.4
323.09 K, 3997 kPa, x1 = 0.0369	1002.4 ± 0.4
323.09 K, 4003 kPa, x1 = 0.1302	1027.8 ± 0.4
323.09 K, 4998 kPa, x1 = 0.0369	1002.7 ± 0.4
323.09 K, 4999 kPa, x1 = 0.1302	1028.1 ± 0.4
323.09 K, 5998 kPa, x1 = 0.1302	1028.5 ± 0.4
323.09 K, 6003 kPa, x1 = 0.0369	1003.1 ± 0.4
323.09 K, 6993 kPa, x1 = 0.0369	1003.5 ± 0.4
323.09 K, 6998 kPa, x1 = 0.1302	1028.9 ± 0.4
323.09 K, 7994 kPa, x1 = 0.0369	1004 ± 0.4
323.09 K, 7999 kPa, x1 = 0.1302	1029.3 ± 0.5
323.09 K, 8996 kPa, x1 = 0.0369	1004.4 ± 0.4
323.09 K, 8998 kPa, x1 = 0.1302	1029.7 ± 0.5
323.09 K, 9995 kPa, x1 = 0.1302	1030.1 ± 0.5
323.09 K, 9997 kPa, x1 = 0.0369	1004.8 ± 0.4
323.09 K, 10986 kPa, x1 = 0.0369	1005.2 ± 0.4
323.09 K, 10997 kPa, x1 = 0.1302	1030.4 ± 0.5
323.09 K, 11988 kPa, x1 = 0.0369	1005.6 ± 0.4
323.09 K, 11998 kPa, x1 = 0.1302	1030.8 ± 0.5
323.09 K, 12997 kPa, x1 = 0.0369	1006 ± 0.4
323.09 K, 13005 kPa, x1 = 0.1302	1031.2 ± 0.5
323.09 K, 13999 kPa, x1 = 0.0369	1006.4 ± 0.4
323.09 K, 14003 kPa, x1 = 0.1302	1031.6 ± 0.5
323.09 K, 14989 kPa, x1 = 0.0369	1006.8 ± 0.4
323.09 K, 14990 kPa, x1 = 0.1302	1032 ± 0.5
323.09 K, 15996 kPa, x1 = 0.1302	1032.3 ± 0.5
323.09 K, 16002 kPa, x1 = 0.0369	1007.1 ± 0.4
323.09 K, 16988 kPa, x1 = 0.0369	1007.6 ± 0.4
323.09 K, 16999 kPa, x1 = 0.1302	1032.7 ± 0.5
323.09 K, 17990 kPa, x1 = 0.0369	1007.9 ± 0.4
323.09 K, 17996 kPa, x1 = 0.1302	1033.1 ± 0.5
323.09 K, 18988 kPa, x1 = 0.1302	1033.4 ± 0.5
323.09 K, 18996 kPa, x1 = 0.0369	1008.3 ± 0.4
323.09 K, 19995 kPa, x1 = 0.0369	1008.7 ± 0.4
323.09 K, 20004 kPa, x1 = 0.1302	1033.8 ± 0.5
323.1 K, 1009 kPa, x1 = 0.0893	1019.6 ± 0.4
323.1 K, 2006 kPa, x1 = 0.0893	1020 ± 0.4
323.1 K, 3012 kPa, x1 = 0.0893	1020.4 ± 0.4
323.1 K, 4011 kPa, x1 = 0.0893	1020.8 ± 0.4
323.1 K, 5002 kPa, x1 = 0.0893	1021.2 ± 0.4
323.1 K, 5996 kPa, x1 = 0.0893	1021.6 ± 0.4
323.1 K, 7006 kPa, x1 = 0.0893	1022 ± 0.4
323.1 K, 8004 kPa, x1 = 0.0893	1022.3 ± 0.4
323.1 K, 8991 kPa, x1 = 0.0893	1022.7 ± 0.4
323.1 K, 9999 kPa, x1 = 0.0893	1023.1 ± 0.4
323.1 K, 10993 kPa, x1 = 0.0893	1023.5 ± 0.4
323.1 K, 11992 kPa, x1 = 0.0893	1023.8 ± 0.4
323.1 K, 13001 kPa, x1 = 0.0893	1024.2 ± 0.5
323.1 K, 13990 kPa, x1 = 0.0893	1024.6 ± 0.5
323.1 K, 14980 kPa, x1 = 0.0893	1025 ± 0.5
323.1 K, 16002 kPa, x1 = 0.0893	1025.3 ± 0.5
323.1 K, 16990 kPa, x1 = 0.0893	1025.7 ± 0.5
323.1 K, 17994 kPa, x1 = 0.0893	1026.1 ± 0.5
323.1 K, 18999 kPa, x1 = 0.0893	1026.5 ± 0.5
323.1 K, 20002 kPa, x1 = 0.0893	1026.8 ± 0.5
333.03 K, 1009 kPa, x1 = 0.1302	1019.4 ± 0.4
333.03 K, 1015 kPa, x1 = 0.0607	1006.4 ± 0.4
333.03 K, 1998 kPa, x1 = 0.0607	1006.8 ± 0.4
333.03 K, 2002 kPa, x1 = 0.1302	1019.8 ± 0.4
333.03 K, 2997 kPa, x1 = 0.1302	1020.2 ± 0.4
333.03 K, 3013 kPa, x1 = 0.0607	1007.2 ± 0.4
333.03 K, 3993 kPa, x1 = 0.1302	1020.6 ± 0.4
333.03 K, 4037 kPa, x1 = 0.0607	1007.6 ± 0.4
333.03 K, 4997 kPa, x1 = 0.1302	1021 ± 0.4
333.03 K, 5116 kPa, x1 = 0.0607	1008.1 ± 0.4
333.03 K, 6002 kPa, x1 = 0.1302	1021.4 ± 0.4
333.03 K, 6004 kPa, x1 = 0.0607	1008.4 ± 0.4
333.03 K, 6992 kPa, x1 = 0.0607	1008.8 ± 0.4
333.03 K, 6992 kPa, x1 = 0.1302	1021.8 ± 0.4
333.03 K, 8003 kPa, x1 = 0.0607	1009.1 ± 0.4
333.03 K, 8013 kPa, x1 = 0.1302	1022.2 ± 0.4
333.03 K, 8975 kPa, x1 = 0.0607	1009.6 ± 0.4
333.03 K, 9016 kPa, x1 = 0.1302	1022.6 ± 0.4
333.03 K, 9983 kPa, x1 = 0.0607	1009.9 ± 0.4
333.03 K, 9993 kPa, x1 = 0.1302	1023 ± 0.4
333.03 K, 10989 kPa, x1 = 0.1302	1023.4 ± 0.4
333.03 K, 11029 kPa, x1 = 0.0607	1010.4 ± 0.4
333.03 K, 12007 kPa, x1 = 0.1302	1023.8 ± 0.5
333.03 K, 12015 kPa, x1 = 0.0607	1010.7 ± 0.4
333.03 K, 13003 kPa, x1 = 0.1302	1024.1 ± 0.5
333.03 K, 13028 kPa, x1 = 0.0607	1011.1 ± 0.4
333.03 K, 13995 kPa, x1 = 0.1302	1024.5 ± 0.5
333.03 K, 14020 kPa, x1 = 0.0607	1011.5 ± 0.4
333.03 K, 15011 kPa, x1 = 0.1302	1024.9 ± 0.5
333.03 K, 15022 kPa, x1 = 0.0607	1011.9 ± 0.4
333.03 K, 15996 kPa, x1 = 0.1302	1025.3 ± 0.5
333.03 K, 16006 kPa, x1 = 0.0607	1012.3 ± 0.4
333.03 K, 16996 kPa, x1 = 0.0607	1012.7 ± 0.4
333.03 K, 17011 kPa, x1 = 0.1302	1025.7 ± 0.5
333.03 K, 17985 kPa, x1 = 0.1302	1026.1 ± 0.5
333.03 K, 18013 kPa, x1 = 0.0607	1013.1 ± 0.4
333.03 K, 18991 kPa, x1 = 0.1302	1026.4 ± 0.5
333.03 K, 19018 kPa, x1 = 0.0607	1013.4 ± 0.4
333.03 K, 19965 kPa, x1 = 0.0607	1013.8 ± 0.4
333.03 K, 19993 kPa, x1 = 0.1302	1026.8 ± 0.5
333.04 K, 1012 kPa, x1 = 0.0369	995.9 ± 0.4
333.04 K, 1999 kPa, x1 = 0.0369	996.3 ± 0.4
333.04 K, 2995 kPa, x1 = 0.0369	996.7 ± 0.4
333.04 K, 4008 kPa, x1 = 0.0369	997.2 ± 0.4
333.04 K, 4992 kPa, x1 = 0.0369	997.6 ± 0.4
333.04 K, 5983 kPa, x1 = 0.0369	998 ± 0.4
333.04 K, 6994 kPa, x1 = 0.0369	998.4 ± 0.4
333.04 K, 7997 kPa, x1 = 0.0369	998.8 ± 0.4
333.04 K, 8994 kPa, x1 = 0.0369	999.2 ± 0.4
333.04 K, 9994 kPa, x1 = 0.0369	999.6 ± 0.4
